US20150011466A1, “APJ Receptor Compounds” (priority 2012, published 2015)
Read-outs that look alike come from different tables or passages of the source. Where a SMILES comes first, the peptide text is derived from it. [ ]: non-standard residue; d: D form. The star is where a group is joined. Lithocholoyl = C[C@H](CCC(=O)*)[C@H]1CC[C@H]2[C@@H]3CC[C@@H]4C[C@H](O)CC[C@]4(C)[C@H]3CC[C@]12C; Palmitoyl = CCCCCCCCCCCCCCCC(=O)*; Aib = CC(C)(N)C(=O)O

Tests used:
APJ receptor = target: T1, APJ receptor (Homo sapiens, UniProt P35414); test: HTRF cAMP assay, inhibition of NKH477 stimulated cAMP in Human TRex cells expressing APJ upon doxycycline induction (APJ-hTREX); type: cell-based; conditions: for Ranking: class combining EC50 and % histamine; for percent intrinsic activity at 0.3 µM: read-out: % IA (@ 300 nM)
T1 construct: expressed in transfected cells; host or cells: Human TRex cells (doxycycline-inducible)
T1 sequence (P35414 1-380): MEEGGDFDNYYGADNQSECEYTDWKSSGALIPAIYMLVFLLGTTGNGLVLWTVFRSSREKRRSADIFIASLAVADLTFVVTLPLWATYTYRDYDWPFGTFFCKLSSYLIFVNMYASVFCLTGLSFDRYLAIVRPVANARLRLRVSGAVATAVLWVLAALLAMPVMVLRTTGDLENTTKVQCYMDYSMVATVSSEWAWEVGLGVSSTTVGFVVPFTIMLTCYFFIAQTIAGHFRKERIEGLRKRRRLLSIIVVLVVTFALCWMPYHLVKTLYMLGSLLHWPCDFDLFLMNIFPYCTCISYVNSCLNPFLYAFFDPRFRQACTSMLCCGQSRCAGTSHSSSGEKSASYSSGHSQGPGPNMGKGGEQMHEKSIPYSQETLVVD
Summary of the method: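 Cells stimulated with NKH477 and cAMP measured by HTRF competitive immunoassay (cryptate anti-cAMP antibody, d2-labeled cAMP). APJ-hTREX cells induced with […] doxycycline and seeded overnight at 40 k/well.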

[1] = target: T2, APJ receptor (β-arrestin recruitment) (Homo sapiens, UniProt P35414); test: β-Arrestin signaling assay (DiscoveRx PathHunter, enzyme fragment complementation); type: cell-based; conditions: for β-arrestin recruitment (dose dependent increase in chemiluminescence): in words; for Emax: read-out: β-arrestin Signaling Max Response
T2 sequence (P35414 1-380): T1 sequence (P35414 1-380)
Source text: Activation of the β-Arrestin signaling pathway was monitored using the commercially available DiscoveRx PathHunter® assay. This assay employs a homogenous, non-imaging assay format called Enzyme Fragment Complementation (EFC) using β-galactosidase (β-Gal) as the functional reporter. […] EA is fused to β-Arrestin and ED is fused to the GPCR of interest. When the GPCR is activated and β-Arrestin is recruited to the receptor, ED and EA complementation occurs, restoring βGal activity which is measured using chemiluminescent PathHunter® Detection Reagent.

[2] = inhibition of NKH477 stimulated cAMP, APJ-hTREX cells, read-out: APJ-hTREX EC50

| EC50 (APJ receptor; [2]) [nM] | percent intrinsic activity at 0.3 µM (APJ receptor) [%] | Histimine (% vs. 48/40) (Histimine (% vs. 48/40)) [%] | EC50 ([1]; PathHunter chemiluminescence, read-out: β-arrestin Signaling EC50) [nM] | Structure (SMILES) | Ranking (APJ receptor) | EC50 (APJ receptor) [nM] | β-arrestin recruitment (dose dependent increase in chemiluminescence) [1] | Emax [1] [%] |
| --- | --- | --- | --- | --- | --- | --- | --- | --- |
| 173 | 47 | 19 |  | CCCCCCCCCCCCCCCC(=O)N[C@H](C(=O)N[C@H](C(=O)N[C@@H](Cc1ccccc1)C(=O)N[C@@H](CCCNC(=N)N)C(=O)N[C@@H](CO)C(=O)N[C@@H](CO)C(=O)N[C@@H](CCC(=O)O)C(=O)N[C@H](CCCCN)C(=O)N[C@@H](CCCNC(=N)N)C(=O)N[C@@H](CCCNC(=N)N)C(=O)N[C@@H](CO)C(=O)N[C@@H](C)C(=O)N[C@@H](CC(=O)O)C(=O)N[C@H](C(=O)NC(C)(C)C(=O)N[C@H](C(N)=O)[C@@H](C)CC)[C@@H](C)CC)C(C)C)[C@@H](C)O [Compound 66] (Palmitoyl-TVFRSSE[dK]RRSADI[Aib]I-NH2; C-terminus assumed) | **** (EC50 101-500 nM and % histamine<35%) |  |  |  |
|  | 46 | 50 |  | CCCCCCCCCCCCCCCC(=O)N[C@H](C(=O)N[C@H](C(=O)N[C@@H](Cc1ccccc1)C(=O)N[C@@H](CCCNC(=N)N)C(=O)N[C@@H](CO)C(=O)N[C@@H](CO)C(=O)N[C@@H](CCC(=O)O)C(=O)N[C@H](CCCCN)C(=O)N[C@@H](CCCNC(=N)N)C(=O)N[C@@H](CCCNC(=N)N)C(=O)N[C@@H](CO)C(=O)N[C@@H](C)C(=O)N[C@@H](CC(=O)O)C(=O)N[C@H](C(=O)N[C@@H](Cc1ccccc1)C(=O)NC(C)(C)C(N)=O)[C@@H](C)CC)C(C)C)[C@@H](C)O [Compound 67, TVFRSSEkRRSADIF(Aib)] (Palmitoyl-TVFRSSE[dK]RRSADIF[Aib]-NH2) |  |  |  |  |
|  | 46 | 25 |  | CCCCCCCCCCCCCCCC(=O)N[C@H](C(=O)N[C@H](C(=O)N[C@@H](Cc1ccccc1)C(=O)N[C@@H](CCCNC(=N)N)C(=O)N[C@@H](CO)C(=O)N[C@@H](CO)C(=O)N[C@@H](CCC(=O)O)C(=O)N[C@H](CCCCN)C(=O)N[C@@H](CCCNC(=N)N)C(=O)NCC(=O)N[C@@H](CO)C(=O)N[C@@H](C)C(=O)N[C@@H](CC(=O)O)C(=O)N[C@H](C(=O)N[C@@H](Cc1ccccc1)C(=O)N[C@H](C(N)=O)[C@@H](C)CC)[C@@H](C)CC)C(C)C)[C@@H](C)O [Compound 76] (Palmitoyl-TVFRSSE[dK]RGSADIFI-NH2) |  |  |  |  |
|  | 64 | 53 |  | CCCCCCCCCCCCCCCC(=O)N[C@H](C(=O)N[C@H](C(=O)N[C@@H](Cc1ccccc1)C(=O)N[C@@H](CCCNC(=N)N)C(=O)N[C@@H](CO)C(=O)N[C@@H](CO)C(=O)N[C@@H](CCC(=O)O)C(=O)N[C@H](CCCCN)C(=O)N[C@@H](CCCNC(=N)N)C(=O)N[C@@H](CCCNC(=N)N)C(=O)NCC(=O)N[C@@H](C)C(=O)N[C@@H](CC(=O)O)C(=O)N[C@H](C(=O)N[C@@H](Cc1ccccc1)C(=O)N[C@H](C(N)=O)[C@@H](C)CC)[C@@H](C)CC)C(C)C)[C@@H](C)O [Compound 77] (Palmitoyl-TVFRSSE[dK]RRGADIFI-NH2) |  |  |  |  |
|  | 60 | 62 |  | CCCCCCCCCCCCCCCC(=O)N[C@H](C(=O)N[C@H](C(=O)N[C@@H](Cc1ccccc1)C(=O)N[C@@H](CCCNC(=N)N)C(=O)N[C@@H](CO)C(=O)N[C@@H](CO)C(=O)N[C@@H](CCC(=O)O)C(=O)N[C@H](CCCCN)C(=O)N[C@@H](CCCNC(=N)N)C(=O)N[C@@H](CCCNC(=N)N)C(=O)N[C@@H](CO)C(=O)N[C@@H](C)C(=O)NCC(=O)N[C@H](C(=O)N[C@@H](Cc1ccccc1)C(=O)N[C@H](C(N)=O)[C@@H](C)CC)[C@@H](C)CC)C(C)C)[C@@H](C)O [Compound 78] (Palmitoyl-TVFRSSE[dK]RRSAGIFI-NH2) |  |  |  |  |
|  | 39 | 43 |  | CCCCCCCCCCCCCCCC(=O)N[C@H](C(=O)N[C@H](C(=O)N[C@@H](Cc1ccccc1)C(=O)N[C@@H](CCCNC(=N)N)C(=O)N[C@@H](CO)C(=O)N[C@@H](CO)C(=O)N[C@@H](CCC(=O)O)C(=O)N[C@H](CCCCN)C(=O)N[C@@H](CCCNC(=N)N)C(=O)N[C@@H](CCCNC(=N)N)C(=O)N[C@@H](CO)C(=O)N[C@@H](C)C(=O)N[C@@H](CC(=O)O)C(=O)N[C@H](C(=O)NCC(=O)N[C@H](C(N)=O)[C@@H](C)CC)[C@@H](C)CC)C(C)C)[C@@H](C)O [Compound 79] (Palmitoyl-TVFRSSE[dK]RRSADIGI-NH2) |  |  |  |  |
|  | 35 | 52 |  | CCCCCCCCCCCCCCCC(=O)N[C@H](C(=O)N[C@H](C(=O)N[C@@H](Cc1ccccc1)C(=O)N[C@@H](CCCNC(=N)N)C(=O)N[C@@H](CO)C(=O)N[C@@H](CO)C(=O)N[C@@H](CCC(=O)O)C(=O)N[C@H](CCCCN)C(=O)N[C@@H](CCCNC(=N)N)C(=O)N[C@@H](CCCNC(=N)N)C(=O)N[C@@H](CO)C(=O)N[C@@H](C)C(=O)N[C@@H](CC(=O)O)C(=O)N[C@H](C(=O)N[C@@H](Cc1ccccc1)C(=O)NCC(N)=O)[C@@H](C)CC)C(C)C)[C@@H](C)O [Compound 80] (Palmitoyl-TVFRSSE[dK]RRSADIFG-NH2) |  |  |  |  |
|  |  |  |  | CC[C@H](C)[C@H](NC(=O)[C@H](Cc1ccccc1)NC(=O)[C@@H](NC(=O)[C@H](CC(=O)O)NC(=O)[C@H](C)NC(=O)[C@H](CO)NC(=O)[C@H](CCCNC(=N)N)NC(=O)[C@H](CCCNC(=N)N)NC(=O)[C@H](CCCCN)NC(=O)[C@H](CCC(=O)O)NC(=O)[C@H](CO)NC(=O)[C@H](CO)NC(=O)[C@H](CCCNC(=N)N)NC(=O)[C@H](CC(=O)O)NC(=O)[C@@H](NC(=O)[C@@H](NC(=O)CC[C@@H](C)[C@H]1CC[C@H]2[C@@H]3CC[C@@H]4C[C@H](O)CC[C@]4(C)[C@H]3CC[C@]12C)[C@@H](C)O)C(C)C)[C@@H](C)CC)C(N)=O [Compound 82] (Lithocholoyl-TVDRSSEKRRSADIFI-NH2; N-terminus assumed) |  |  | weakly engaged | 20 |
| 11 |  | 48 | 34.4 | CCCCCCCCCCCCCCCC(=O)N[C@H](C(=O)N[C@H](C(=O)N[C@@H](Cc1ccccc1)C(=O)N[C@@H](CCC(N)=O)C(=O)N[C@@H](CO)C(=O)N[C@@H](CCC(=O)O)C(=O)N[C@H](CCCCN)C(=O)N[C@@H](CCCNC(=N)N)C(=O)N[C@@H](CCCNC(=N)N)C(=O)N[C@@H](CO)C(=O)N[C@@H](C)C(=O)N[C@@H](CC(=O)O)C(=O)N[C@@H](CCC(N)=O)C(=O)N[C@@H](Cc1ccccc1)C(=O)N[C@H](C(N)=O)[C@@H](C)CC)C(C)C)[C@@H](C)O [Compound 87] (Palmitoyl-TVFQSE[dK]RRSADQFI-NH2; C-terminus assumed) | *** (EC50<100 nM and % histamine>35%) |  | weakly engaged | 47 |

| Structure (SMILES) | EC50 (APJ receptor; [2]) [nM] | percent intrinsic activity at 0.3 µM (APJ receptor) [%] | Histimine (% vs. 48/40) (Histimine (% vs. 48/40)) [%] | EC50 ([1]; PathHunter chemiluminescence, read-out: β-arrestin Signaling EC50) [nM] | Ranking (APJ receptor) | EC50 (APJ receptor) [nM] | β-arrestin recruitment (dose dependent increase in chemiluminescence) [1] | Emax [1] [%] |
| --- | --- | --- | --- | --- | --- | --- | --- | --- |
| CCCCCCCCCCCCCCCC(=O)N[C@H](C(=O)NCC(=O)N[C@@H](Cc1ccccc1)C(=O)N[C@@H](CCCNC(=N)N)C(=O)N[C@@H](CO)C(=O)N[C@@H](CO)C(=O)N[C@@H](CCC(=O)O)C(=O)N[C@H](CCCCN)C(=O)N[C@@H](CCCNC(=N)N)C(=O)N[C@@H](CCCNC(=N)N)C(=O)N[C@@H](CO)C(=O)N[C@@H](C)C(=O)N[C@@H](CC(=O)O)C(=O)N[C@H](C(=O)N[C@@H](Cc1ccccc1)C(=O)N[C@H](C(N)=O)[C@@H](C)CC)[C@@H](C)CC)[C@@H](C)O [Compound 69] (Palmitoyl-TGFRSSE[dK]RRSADIFI-NH2; C-terminus assumed) |  | 77 | 50 |  | *** (EC50<100 nM and % histamine>35%) | 38.1 |  |  |
| CCCCCCCCCCCCCCCC(=O)N[C@H](C(=O)N[C@H](C(=O)N[C@@H](Cc1ccccc1)C(=O)NCC(=O)N[C@@H](CO)C(=O)N[C@@H](CO)C(=O)N[C@@H](CCC(=O)O)C(=O)N[C@H](CCCCN)C(=O)N[C@@H](CCCNC(=N)N)C(=O)N[C@@H](CCCNC(=N)N)C(=O)N[C@@H](CO)C(=O)N[C@@H](C)C(=O)N[C@@H](CC(=O)O)C(=O)N[C@H](C(=O)N[C@@H](Cc1ccccc1)C(=O)N[C@H](C(N)=O)[C@@H](C)CC)[C@@H](C)CC)C(C)C)[C@@H](C)O [Compound 71] (Palmitoyl-TVFGSSE[dK]RRSADIFI-NH2; C-terminus assumed) |  | 65 | 6 |  | **** (EC50 101-500 nM and % histamine<35%) | 111 |  |  |
| CCCCCCCCCCCCCCCC(=O)N[C@H](C(=O)N[C@H](C(=O)N[C@@H](Cc1ccccc1)C(=O)N[C@@H](CCCNC(=N)N)C(=O)NCC(=O)N[C@@H](CO)C(=O)N[C@@H](CCC(=O)O)C(=O)N[C@H](CCCCN)C(=O)N[C@@H](CCCNC(=N)N)C(=O)N[C@@H](CCCNC(=N)N)C(=O)N[C@@H](CO)C(=O)N[C@@H](C)C(=O)N[C@@H](CC(=O)O)C(=O)N[C@H](C(=O)N[C@@H](Cc1ccccc1)C(=O)N[C@H](C(N)=O)[C@@H](C)CC)[C@@H](C)CC)C(C)C)[C@@H](C)O [Compound 72] (Palmitoyl-TVFRGSE[dK]RRSADIFI-NH2; C-terminus assumed) |  | 75 | 44 |  | ** (EC50 101-500 nM and % histamine>35%) | 134 |  |  |
